Data: patent US20090004683A1, “Indicator Agent for Noninflammatory Stress Response and Use Thereof” (priority 2004, published 2009)

System: IL-6
Assay: Plasma IL-6 level in stress-loaded wild type mice (ELISA)
Type: in vivo, mouse
Conditions: stress-loaded WT mice; FIG. 5B
Procedure: For restraint stress, each mouse was kept in a restrainer (a round plastic tube 27 mm in diameter) for 1, 3 or 6 hours, and IL-18 levels were measured. Regarding the analysis of IL-6, each mouse was restrained as described above, and then housed in the starting cage for 6 hours, after which a measurement was performed.
After restraint, each mouse was anesthetized with diethyl ether, and blood was drawn into an EDTA-containing tube. Plasma was separated by centrifugation at 4° C. and 10000×g for 10 minutes, and stored at −80° C. IL-18 and IL-6 were analyzed by ELISA using Quantikine™ immunoassay kit (R&D Systems) and OptEIA™ (BD-Pharmingen), respectively.
Using IL-18-deficient mice, the relationship between IL-6, which is another stress-related cytokine, and IL-18, was examined. Without stress, IL-6 was undetectable in WT and IL-18 KO, but after 3 hours of stress loading, the IL-6 level was 230 pg/ml in WT and 25 pg/ml in IL-18 KO (FIG. 5A). After liberation from the stress, plasma IL-6 was kept at about 80 pg/ml in WT, but decreased to 5 pg/ml in IL-18 KO (FIG. 5A). Treatment with YVAD-CHO, SOD and anti-IL-18 antibody 70% inhibited the stress-induced increase in plasma IL-6 level in WT (FIG. 5B).

Substance: SOD: superoxide dismutase (SOD)-1 purchased from Sigma; active oxygen eliminator
- inhibition of the stress-induced increase in plasma IL-6 level: 70%
